Experimental data published in ChEMBL document CHEMBL1129258, “Synthesis and structure-activity relationships of 2-pyridones: a novel series of potent DNA gyrase inhibitors as antibacterial agents” (J Med Chem, 1996).
In brackets after ≈: the same amount, converted by molar mass.

Assays:
[1] = biological target: T1, DNA gyrase (Escherichia coli) (UniProt P0AES6+P0AES4); experiment: In vitro antibacterial activity against gram-negative organism […] ATCC 13048; format: functional; conditions: Enterobacter aerogenes
[2] = biological target: T1, DNA gyrase (Escherichia coli); experiment: In vitro antibacterial against gram-negative organism Escherichia coli JUHL; format: functional; conditions: Escherichia coli K-12
[3] = biological target: T1, DNA gyrase (Escherichia coli); experiment: In vitro antibacterial activity against gram-negative organism Klebsiella pneumoniae ATCC 8045; format: functional
[4] = biological target: T1, DNA gyrase (Escherichia coli); experiment: In vitro antibacterial activity against gram-negative organism Prov. stuartii CMX-640; format: functional; conditions: Providencia stuartii
[5] = In vitro antibacterial activity against gram-negative organism Pseudomonas aeruginosa 5007; format: functional; conditions: Pseudomonas aeruginosa; read-out: MIC
[6] = biological target: T2, DNA gyrase (Staphylococcus aureus) (UniProt P0A0K8+P20831); experiment: In vitro antibacterial activity against gram-positive organism Staphylococcus aureus 1775; format: functional
[7] = biological target: T2, DNA gyrase (Staphylococcus aureus); experiment: In vitro antibacterial activity against gram-positive organism Staphylococcus aureus ATCC 6538p; format: functional
[8] = biological target: T2, DNA gyrase (Staphylococcus aureus); experiment: In vitro antibacterial activity against gram-positive organism Staphylococcus aureus NCTC-10649M; format: functional
[9] = biological target: T1, DNA gyrase (Escherichia coli); experiment: In vitro antibacterial activity against gram-positive organism Streptococcus bovis A-5169; format: functional; conditions: Streptococcus equinus
Streptococcus pyogenes = experiment: In vitro antibacterial activity against gram-positive organism Streptococcus pyogenes EES61; format: functional; conditions: Streptococcus pyogenes; read-out: MIC
[10] = biological target: T1, DNA gyrase (Escherichia coli); experiment: In vitro antibacterial activity against gram-positive organism Enterococcus faecium ATCC 8043; format: functional
[11] = In vitro antibacterial activity against gram-negative organism Pseudomonas aeruginosa DPHD-2862; format: functional; conditions: Pseudomonas aeruginosa; read-out: MIC
[12] = biological target: T1, DNA gyrase (Escherichia coli); conditions: Escherichia coli K-12
Description: Concentration which causes 50% of the gyrase (Escherichia coli H560)-mediated maximal DNA cleavage.

| MIC [1] | MIC [2] | MIC [3] | MIC [4] | MIC [5] | MIC [6] | MIC [7] | MIC [8] | MIC [9] | MIC (Streptococcus pyogenes) | MIC [10] | MIC [11] | SMILES | CC50 [12] |
| --- | --- | --- | --- | --- | --- | --- | --- | --- | --- | --- | --- | --- | --- |
| 0.78 µg/mL (≈ 1.95 µM) | 0.39 µg/mL (≈ 0.974 µM) | 0.2 µg/mL (≈ 0.5 µM) | 25 µg/mL (≈ 62.4 µM) | 6.2 µg/mL (≈ 15.5 µM) | 25 µg/mL (≈ 62.4 µM) | 0.39 µg/mL (≈ 0.974 µM) | 0.39 µg/mL (≈ 0.974 µM) | 25 µg/mL (≈ 62.4 µM) | 6.2 µg/mL (≈ 15.5 µM) | 25 µg/mL (≈ 62.4 µM) |  | CN1CCN(c2nc3c(-c4ccc(F)cc4)cc(C(=O)O)c(=O)n3cc2F)CC1 |  |
| 0.05 µg/mL (≈ 0.151 µM) | 0.01 µg/mL (≈ 0.0302 µM) | 0.01 µg/mL (≈ 0.0302 µM) | 1.56 µg/mL (≈ 4.71 µM) | 0.39 µg/mL (≈ 1.18 µM) | 50 µg/mL (≈ 151 µM) | 0.2 µg/mL (≈ 0.604 µM) | 0.39 µg/mL (≈ 1.18 µM) | 3.1 µg/mL (≈ 9.36 µM) | 1.56 µg/mL (≈ 4.71 µM) | 0.78 µg/mL (≈ 2.35 µM) | 25 µg/mL (≈ 75.4 µM) | O=C(O)c1cc(C2CC2)c2cc(N3CCNCC3)c(F)cn2c1=O | 0.15 µg/mL (≈ 0.453 µM) |
| 0.39 µg/mL (≈ 1.19 µM) | 0.39 µg/mL (≈ 1.19 µM) | 0.2 µg/mL (≈ 0.611 µM) | 12.5 µg/mL (≈ 38.2 µM) | 6.2 µg/mL (≈ 18.9 µM) | 6.2 µg/mL (≈ 18.9 µM) | 0.1 µg/mL (≈ 0.306 µM) | 0.2 µg/mL (≈ 0.611 µM) |  | 1.56 µg/mL (≈ 4.77 µM) | 0.39 µg/mL (≈ 1.19 µM) | > 100 µg/mL | Cc1c(-n2ccnc2)c(F)cn2c(=O)c(C(=O)O)cc(C3CC3)c12 | 0.3 µg/mL (≈ 0.917 µM) |
| 0.05 µg/mL (≈ 0.139 µM) | 0.01 µg/mL (≈ 0.0278 µM) | 0.01 µg/mL (≈ 0.0278 µM) | 0.78 µg/mL (≈ 2.17 µM) | 0.2 µg/mL (≈ 0.556 µM) | 1.56 µg/mL (≈ 4.34 µM) | 0.02 µg/mL (≈ 0.0556 µM) | 0.05 µg/mL (≈ 0.139 µM) | 0.1 µg/mL (≈ 0.278 µM) | 0.1 µg/mL (≈ 0.278 µM) | 0.1 µg/mL (≈ 0.278 µM) | 6.2 µg/mL (≈ 17.3 µM) | Cc1c(N2CCC(C)(N)C2)c(F)cn2c(=O)c(C(=O)O)cc(C3CC3)c12 (centres undefined) |  |
| 0.1 µg/mL (≈ 0.278 µM) | 0.1 µg/mL (≈ 0.278 µM) | 0.01 µg/mL (≈ 0.0278 µM) | 3.1 µg/mL (≈ 8.63 µM) | 0.78 µg/mL (≈ 2.17 µM) | 0.78 µg/mL (≈ 2.17 µM) | 0.01 µg/mL (≈ 0.0278 µM) | 0.02 µg/mL (≈ 0.0556 µM) | 0.1 µg/mL (≈ 0.278 µM) | 0.2 µg/mL (≈ 0.556 µM) | 0.05 µg/mL (≈ 0.139 µM) | 3.1 µg/mL (≈ 8.63 µM) | Cc1c(N2C[C@@H](N)C[C@H]2C)c(F)cn2c(=O)c(C(=O)O)cc(C3CC3)c12 |  |
| 0.78 µg/mL (≈ 1.91 µM) | 0.05 µg/mL (≈ 0.123 µM) | 0.05 µg/mL (≈ 0.123 µM) | 1.56 µg/mL (≈ 3.83 µM) | 0.78 µg/mL (≈ 1.91 µM) | 0.2 µg/mL (≈ 0.491 µM) | 0.01 µg/mL (≈ 0.0245 µM) | 0.02 µg/mL (≈ 0.0491 µM) | 0.05 µg/mL (≈ 0.123 µM) | 0.05 µg/mL (≈ 0.123 µM) | 0.05 µg/mL (≈ 0.123 µM) | 12.5 µg/mL (≈ 30.7 µM) | Cc1c(N2CCC(c3ccccn3)C2)c(F)cn2c(=O)c(C(=O)O)cc(C3CC3)c12 (centres undefined) | 2.6 µg/mL (≈ 6.38 µM) |
| 25 µg/mL (≈ 62.8 µM) | 25 µg/mL (≈ 62.8 µM) | 12.5 µg/mL (≈ 31.4 µM) | > 100 µg/mL | 100 µg/mL (≈ 251 µM) | 100 µg/mL (≈ 251 µM) | 50 µg/mL (≈ 126 µM) | 50 µg/mL (≈ 126 µM) | 25 µg/mL (≈ 62.8 µM) | 25 µg/mL (≈ 62.8 µM) | 25 µg/mL (≈ 62.8 µM) | 50 µg/mL (≈ 126 µM) | COc1ccc(-c2cc(C(=O)O)c(=O)n3cc(F)c(N4CCC(N)C4)nc23)cc1 (centres undefined) |  |
| 0.1 µg/mL (≈ 0.28 µM) | 0.02 µg/mL (≈ 0.056 µM) | 0.05 µg/mL (≈ 0.14 µM) | 0.78 µg/mL (≈ 2.18 µM) | 0.2 µg/mL (≈ 0.56 µM) | 6.2 µg/mL (≈ 17.3 µM) | 0.1 µg/mL (≈ 0.28 µM) | 0.2 µg/mL (≈ 0.56 µM) | 0.39 µg/mL (≈ 1.09 µM) | 0.2 µg/mL (≈ 0.56 µM) | 0.2 µg/mL (≈ 0.56 µM) | 6.2 µg/mL (≈ 17.3 µM) | Cc1c(N2C[C@@H]3C[C@H]2CN3)c(F)cn2c(=O)c(C(=O)O)cc(C3CC3)c12 |  |
| 0.1 µg/mL (≈ 0.278 µM) | 0.02 µg/mL (≈ 0.0556 µM) | 0.05 µg/mL (≈ 0.139 µM) | 3.1 µg/mL (≈ 8.63 µM) | 0.78 µg/mL (≈ 2.17 µM) | 25 µg/mL (≈ 69.6 µM) | 0.1 µg/mL (≈ 0.278 µM) | 0.2 µg/mL (≈ 0.556 µM) | 0.78 µg/mL (≈ 2.17 µM) | 0.39 µg/mL (≈ 1.09 µM) | 0.2 µg/mL (≈ 0.556 µM) | 6.2 µg/mL (≈ 17.3 µM) | Cc1c(N2CCCNCC2)c(F)cn2c(=O)c(C(=O)O)cc(C3CC3)c12 |  |
| 3.1 µg/mL | 3.1 µg/mL | 3.1 µg/mL | 25 µg/mL | 6.2 µg/mL |  | 3.1 µg/mL | 6.2 µg/mL | 25 µg/mL | 25 µg/mL | 50 µg/mL |  | CCc1cc(C(=O)O)c(=O)n2ccc(N3CCC(N)C3)cc12.Cl (centres undefined) |  |
| 1.56 µg/mL (≈ 4.68 µM) | 0.78 µg/mL (≈ 2.34 µM) | 0.2 µg/mL (≈ 0.6 µM) | 25 µg/mL (≈ 75 µM) | 6.2 µg/mL (≈ 18.6 µM) | > 100 µg/mL | 1.56 µg/mL (≈ 4.68 µM) | 1.56 µg/mL (≈ 4.68 µM) | 12.5 µg/mL (≈ 37.5 µM) | 12.5 µg/mL (≈ 37.5 µM) | 3.1 µg/mL (≈ 9.3 µM) | > 100 µg/mL | Cc1c(N(C)CCN)c(F)cn2c(=O)c(C(=O)O)cc(C3CC3)c12 |  |
| 0.39 µg/mL (≈ 1.09 µM) | 0.2 µg/mL (≈ 0.556 µM) | 0.1 µg/mL (≈ 0.278 µM) | 3.1 µg/mL (≈ 8.63 µM) | 1.56 µg/mL (≈ 4.34 µM) | 6.2 µg/mL (≈ 17.3 µM) | 0.1 µg/mL (≈ 0.278 µM) | 0.1 µg/mL (≈ 0.278 µM) |  | 0.39 µg/mL (≈ 1.09 µM) | 0.39 µg/mL (≈ 1.09 µM) | 50 µg/mL (≈ 139 µM) | CCc1c(N2CCC(N)C2)c(F)cn2c(=O)c(C(=O)O)cc(C3CC3)c12 (centres undefined) |  |
| 0.05 µg/mL | 0.05 µg/mL | 0.02 µg/mL | 1.56 µg/mL | 0.39 µg/mL | > 100 µg/mL | 0.05 µg/mL | 0.05 µg/mL | 0.78 µg/mL | 0.39 µg/mL | 0.2 µg/mL | > 100 µg/mL | Cc1ccc(S(=O)(=O)O)cc1.NC1CCN(c2nc3c(cc2F)c(=O)c(C(=O)O)cn3-c2ccc(F)cc2F)C1 (centres undefined) [TOSUFLOXACIN TOSYLATE] |  |
